Measurements published in patent US7253171B2 (Laboratorios Almirall, S.A., priority 2001, dated 2007).

biological target: T1, α4β1 integrin (Homo sapiens, UniProt P05556+P13612); assay: U-937 cell adhesion to human VCAM-1 (α4β1 binding assay); type: cell-based; conditions: U-937 cells, immobilized human VCAM-1; read-out: IC50 values in the α4β1 assays
T1 construct: endogenous in cells; host or cells: U-937 cells
Experimental: U-937 Cell Adhesion to Human VCAM-1 (α4β1 Binding Assay)
Recombinant human soluble VCAM-1 (R&D Systems Ltd., UK) at 2 μg/ml in PBS was immobilized overnight onto microtiter plates. Unbound VCAM-1 was washed away and VCAM-1 coated plates were blocked with bovine serum albumin (BSA) 2,5% in PBS for 2 h at room temperature. U-937 cells were labelled with 5-carboxyfluorescein diacetate (5-CFDA) in order to detect bound cells to the wells. Test compounds were added to the wells followed by U-937 cells and the adhesion assay was performed for 1 h at 37° C. Following incubation, the wells were emptied and washed. Inhibition of binding was measured by the quantity of fluorescence bound to the plate for each of the various concentrations of test compound, as well as for controls containing no test compound, with a Cytofluor 2300 fluorescence measurement system.

T1 sequence (P13612 34-1032): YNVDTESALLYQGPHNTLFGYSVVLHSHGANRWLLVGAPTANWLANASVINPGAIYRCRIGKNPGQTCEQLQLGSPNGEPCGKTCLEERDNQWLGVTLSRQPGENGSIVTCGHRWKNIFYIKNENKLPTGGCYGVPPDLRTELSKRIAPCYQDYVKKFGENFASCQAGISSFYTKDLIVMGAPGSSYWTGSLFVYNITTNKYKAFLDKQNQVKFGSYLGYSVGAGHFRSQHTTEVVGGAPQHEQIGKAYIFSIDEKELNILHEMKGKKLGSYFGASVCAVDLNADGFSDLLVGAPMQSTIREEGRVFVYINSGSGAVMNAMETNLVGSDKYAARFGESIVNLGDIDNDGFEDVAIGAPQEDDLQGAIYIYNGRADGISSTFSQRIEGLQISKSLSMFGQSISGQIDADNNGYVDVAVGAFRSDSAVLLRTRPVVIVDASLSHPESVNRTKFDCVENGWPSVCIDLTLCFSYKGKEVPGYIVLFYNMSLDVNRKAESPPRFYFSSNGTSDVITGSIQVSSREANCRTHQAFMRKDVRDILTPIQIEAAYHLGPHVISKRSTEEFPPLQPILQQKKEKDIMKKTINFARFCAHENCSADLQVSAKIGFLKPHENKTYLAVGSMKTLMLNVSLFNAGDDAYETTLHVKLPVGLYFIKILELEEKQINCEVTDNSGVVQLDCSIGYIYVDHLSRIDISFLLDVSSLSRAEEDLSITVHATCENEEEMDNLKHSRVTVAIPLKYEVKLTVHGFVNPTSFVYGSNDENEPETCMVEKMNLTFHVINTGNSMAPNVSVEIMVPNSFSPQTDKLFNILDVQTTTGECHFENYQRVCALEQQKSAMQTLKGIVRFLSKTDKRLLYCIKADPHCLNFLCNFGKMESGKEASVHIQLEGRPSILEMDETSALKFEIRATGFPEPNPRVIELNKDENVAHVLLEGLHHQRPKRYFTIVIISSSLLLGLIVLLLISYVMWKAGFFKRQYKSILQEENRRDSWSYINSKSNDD
T1 sequence (P05556 21-798): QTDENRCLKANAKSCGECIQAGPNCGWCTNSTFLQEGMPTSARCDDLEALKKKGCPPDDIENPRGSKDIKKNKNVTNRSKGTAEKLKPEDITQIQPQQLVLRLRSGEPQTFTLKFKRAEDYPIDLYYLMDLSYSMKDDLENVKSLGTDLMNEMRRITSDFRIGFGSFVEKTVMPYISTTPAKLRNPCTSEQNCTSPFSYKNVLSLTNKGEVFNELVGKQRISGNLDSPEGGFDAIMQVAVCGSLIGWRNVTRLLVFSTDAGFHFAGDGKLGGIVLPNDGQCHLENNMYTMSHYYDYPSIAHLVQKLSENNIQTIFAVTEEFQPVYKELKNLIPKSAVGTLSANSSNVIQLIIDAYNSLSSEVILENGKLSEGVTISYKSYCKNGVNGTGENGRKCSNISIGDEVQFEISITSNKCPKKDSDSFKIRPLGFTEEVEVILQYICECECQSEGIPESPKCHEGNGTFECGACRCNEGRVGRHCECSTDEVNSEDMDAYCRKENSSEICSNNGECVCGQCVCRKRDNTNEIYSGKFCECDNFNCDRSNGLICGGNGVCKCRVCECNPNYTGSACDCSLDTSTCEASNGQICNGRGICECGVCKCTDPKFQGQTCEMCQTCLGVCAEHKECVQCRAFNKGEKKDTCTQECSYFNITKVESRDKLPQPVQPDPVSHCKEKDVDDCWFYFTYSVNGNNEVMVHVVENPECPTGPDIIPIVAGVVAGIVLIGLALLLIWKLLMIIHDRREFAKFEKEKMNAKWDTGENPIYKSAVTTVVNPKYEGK

IC50 [µM] | Structure (SMILES)
< 0.1 | O=C(Nc1ccccc1S(=O)(=O)c1ccccc1)N[C@@H](Cc1ccc(Nc2nccc3cnccc23)cc1)C(=O)O [Example 122, (S)-2-[3-(2-Benzenesulfonylphenyl)ureido]-3-[4-([2,6]naphthyridin-1-ylamino)phenyl]propionic acid]
< 0.1 | O=C(Nc1ccccc1S(=O)(=O)N1CCCCC1)N[C@@H](Cc1ccc(Nc2nccc3cnccc23)cc1)C(=O)O [Example 124, (S)-3-[4-([2,6]Naphthyridin-1-ylamino)phenyl]-2-{3-[2-(piperidine-1-sulfonyl)phenyl]ureido}propionic acid]
< 0.1 | O=C(Nc1ccccc1S(=O)(=O)N1CCCCC1)N[C@@H](Cc1ccc(Oc2nccc3cnccc23)cc1)C(=O)O [Example 136, (S)-3-[4-([2,6]Naphthyridin-1-yloxy)phenyl]-2-{3-[2-(piperidine-1-sulfonyl)phenyl]ureido}propionic acid]
< 0.1 | CN(C(=S)N[C@@H](Cc1ccc(NC(=O)c2c(Cl)cncc2Cl)cc1)C(=O)O)c1ccccc1Cc1ccccc1 [Example 144, (S)-2-[3-(2-Benzylphenyl)-3-methylthioureido]-3-(4-{[1-(3,5-dichloropyridin-4-yl)methanoyl]amino}phenyl)propionic acid]
< 0.1 | O=C(Nc1ccc(C[C@H](NC(=S)Nc2ccccc2S(=O)(=O)N2CCCCC2)C(=O)O)cc1)c1c(Cl)cncc1Cl [Example 147]

The next lines start with the molecule.

Structure (SMILES) | IC50 [µM]
O=C(Nc1ccccc1S(=O)(=O)c1ccccc1)N[C@@H](Cc1ccc(Nc2nccc3ccncc23)cc1)C(=O)O [Example 128, (S)-2-[3-(2-Benzenesulfonylphenyl)ureido]-3-[4-([2,7]naphthyridin-1-ylamino)phenyl]propionic acid] | < 0.1
O=C(Nc1ccccc1S(=O)(=O)N1CCCCC1)N[C@@H](Cc1ccc(Nc2nccc3ccncc23)cc1)C(=O)O [Example 130, (S)-3-[4-([2,7]Naphthyridin-1ylamino)-phenyl]-2-{3-[2-(piperidine-1-sulfonyl)phenyl]ureido}propionic acid] | < 0.1
O=C(Nc1ccccc1S(=O)(=O)c1ccccc1)N[C@@H](Cc1ccc(Oc2nccc3cnccc23)cc1)C(=O)O [Example 134, (S)-2-[3-(2-Benzenesulfonylphenyl)ureido]-3-[4-([2,6]naphthyridin-1-yloxy)phenyl]propionic acid] | < 0.1
O=C(Nc1ccccc1S(=O)(=O)N1CCCCC1)N[C@@H](Cc1ccc(Oc2nccc3ccncc23)cc1)C(=O)O [Example 140, (S)-3-[4-([2,7]Naphthyridin-1-yloxy)phenyl]-2-{3-[2-(piperidine-1-sulfonyl)phenyl]ureido}propionic acid] | < 0.1
CN(C(=S)N[C@@H](Cc1ccc(NC(=O)c2c(Cl)cncc2Cl)cc1)C(=O)O)c1ccccc1C(=O)N(C)C1CCCCC1 [Example 146] | < 0.1
